From US8426420B2, “Heterocyclic pyrazole-carboxamidesas P2Y12 antagonists” (Sanofi, priority 2007, dated 2013)

Test system: human platelet rich plasma
Test: Inhibition of human platelet aggregation, 96-well assay
Assay type: cell-based
Settings: ADP-induced aggregation, human platelet rich plasma, 96-well plates, AUC of absorbance over 20 minutes
Description: Inhibition of Human Platelet Aggregation
Alternatively to a binding assay which measures a compound's ability to bind to the P2Y12 receptor, the effect on cellular function was also determined. This ability of the compound was evaluated in two platelet aggregation assays: in 96-well plates and with the “Born”-method using single cuvettes.
Whole blood was collected from healthy volunteers using 20 ml syringes containing 2 ml of ACD-A Aqua-Citrat-Dextrose-A, Fresenius). The anticoagulated whole blood was transferred into 15 ml polypropylene conical tubes (10 ml per tube). The tubes were centrifuged for 15 minutes at 150×g at RT without using the centrifuge brake. This procedure leads to a pellet of cellular components and a supernatant of platelet rich plasma (PRP). The PRP layer was collected from each tube and pooled for each donor. To avoid carry over of cellular components following centrifugation, approximately 5 ml of PRP was left in the tube. The platelet concentration was determined using a Coulter Counter.
The 15 ml tubes containing the pellet of cellular components were centrifuged again for 10 minutes at 1940×g. This pelleted out most particulate blood constituents remaining, leaving a layer of Platelet Poor Plasma (PPP). The PPP was collected for each donor. The PRP layer, previously set aside, was diluted with PPP to a final concentration of approximately 3×E8 platelets/ml with the PPP.
The human platelet aggregation assay is performed in 96-well plates using a microtiter plate reader (SpectraMax Plus 384 with SoftMax Pro software from Molecular Devices). In the plate 15 μl of test compound at 10× final concentration in NaCl is mixed with 120 μl fresh PRP and incubated for 5 minutes. Following that incubation period, 15 μl of 40 μM ADP is added to the reaction mix. This addition of ADP is sufficient to induce aggregation in the absence of an inhibitor. The plates are then transferred to the microplate reader and aggregation is measured over 20 minutes. The instrument settings include:
Absorbance at 650 nm, run time 20 minutes with readings in 1-minute intervals and 50 seconds shaking between readings all performed at 37° C.

SMILES | IC50
CCOC(=O)N1CCN(C(=O)[C@H](CCC(=O)O)NC(=O)c2cc(OCC(=O)N3CC(F)(F)C[C@H]3C(=O)NC3CC3)n(-c3ccccc3)n2)CC1 [Example 165, 4-[(S)-4-Carboxy-2-({5-[2-((S)-2-cycloproylcarbamoyl-4,4-difluoro-pyrrolidin-1-yl)-2-oxo-ethoxy]-1-phenyl-1H-pyrazole-3-carbonyl}-amino)-butyryl]-piperazine-1-carboxylic acid ethyl ester] | 340 nM
CCOC(=O)N1CCN(C(=O)[C@H](CCC(=O)O)NC(=O)c2cc(OCC(=O)N3CC(F)(F)C[C@H]3C(=O)NCC3CC3)n(-c3ccccc3)n2)CC1 [Example 166, 4-[(S)-4-Carboxy-2-({5-[2-((S)-2-(cycloproylmethyl-carbamoyl)-4,4-difluoro-pyrrolidin-1-yl)-2-oxo-ethoxy]-1-phenyl-1H-pyrazole-3-carbonyl}-amino)-butyryl]-piperazine-1-carboxylic acid ethyl ester] | 80 nM

Same assay, conditions: Homo sapiens, Platelet, 20 min

IC50 | SMILES
630 nM | CCOC(=O)N1CCN(C(=O)[C@H](CC(=O)O)NC(=O)c2cc(OCC(=O)N3CCC[C@H]3C(=O)NCCF)n(-c3ccccc3)n2)CC1 [Example 59, 4-{(S)-3-Carboxy-2-[(5-{2-[(S)-2-(2-fluoro-ethylcarbamoyl)-pyrrolidin-1-yl]-2-oxo-ethoxy}-1-phenyl-1H-pyrazole-3-carbonyl)-amino]-propionyl}-piperazine-1-carboxylic acid ethyl ester]
190 nM | CCOC(=O)N1CCN(C(=O)[C@H](CCC(=O)O)NC(=O)c2cc(O[C@H](C)C(=O)N3CCC[C@H]3C(=O)N3CCCC3)n(-c3ccccc3)n2)CC1 [Example 64, 4-{(S)-4-Carboxy-2-[(5-{(R)-1-methyl-2-oxo-2-[(S)-2-(pyrrolidine-1-carbonyl)-pyrrolidin-1-yl]-ethoxy}-1-phenyl-1H-pyrazole-3-carbonyl)-amino]-butyryl}-piperazine-1-carboxylic acid ethyl ester]
330 nM | CCOC(=O)N1CCN(C(=O)[C@H](CCC(=O)O)NC(=O)c2cc(O[C@@H](C)C(=O)N3CCC[C@H]3C(=O)NC3CC3)n(-c3ccccc3)n2)CC1 [Example 66, 4-[(S)-4-Carboxy-2-({5-[(S)-2-((S)-2-cyclopropylcarbamoyl-pyrrolidin-1-yl)-1-methyl-2-oxo-ethoxy]-1-phenyl-1H-pyrazole-3-carbonyl}-amino)-butyryl]-piperazine-1-carboxylic acid ethyl ester]
70 nM | CCOC(=O)N1CCN(C(=O)[C@H](CCC(=O)O)NC(=O)c2cc(O[C@@H](C)C(=O)N3CCC[C@H]3C(=O)NCC3CC3)n(-c3ccccc3)n2)CC1 [Example 68, 4-[(S)-4-Carboxy-2-({5-[(S)-2-((S)-2-cyclopropylmethylcarbamoyl-pyrrolidin-1-yl)-1-methyl-2-oxo-ethoxy]-1-phenyl-1H-pyrazole-3-carbonyl}-amino)-butyryl]-piperazine-1-carboxylic acid ethyl ester]
260 nM | CCOC(=O)N1CCN(C(=O)[C@H](CCC(=O)O)NC(=O)c2cc(O[C@@H](C)C(=O)N3CCC[C@H]3C(=O)NCC(F)(F)F)n(-c3ccccc3)n2)CC1 [Example 70, 4-[(S)-4-Carboxy-2-({5-[(S)-2-((S)-2-(2,2,2-trifluoroethylcarbamoyl)-pyrrolidin-1-yl)-1-methyl-2-oxo-ethoxy]-1-phenyl-1H-pyrazole-3-carbonyl}-amino)-butyryl]-piperazine-1-carboxylic acid ethyl ester]
1810 nM | CCOC(=O)N1CCN(C(=O)[C@H](CCNC(=O)C(F)(F)F)NC(=O)c2cc(OCC(=O)N3CCC[C@H]3C(=O)NC3CCC3)n(-c3ccccc3)n2)CC1 [Example 98, 4-[(S)-2-({5-[2-((S)-2-Cyclobutylcarbamoyl-pyrrolidin-1-yl)-2-oxo-ethoxy]-1-phenyl-1H-pyrazole-3-carbonyl}-amino)-4-(2,2,2-trifluoro-acetylamino)-butyryl]-piperazine-1-carboxylic acid ethyl ester]
1230 nM | O=C(O)CC[C@H](NC(=O)c1cc(OCC(=O)N2CCC[C@H]2C(=O)NC2CCC2)n(-c2ccccc2)n1)C(=O)N1CCN(C(=O)c2ccccc2)CC1 [Example 104, (S)-5-(4-Benzoyl-piperazin-1-yl)-4-({5-[2-((S)-2-cyclobutylcarbamoyl-pyrrolidin-1-yl)-2-oxo-ethoxy]-1-phenyl-1H-pyrazole-3-carbonyl}-amino)-5-oxo-pentanoic acid]
430 nM | CCOC(=O)N1CCN(C(=O)[C@H](CCC(=O)O)NC(=O)c2cc(OCC(=O)N3CCC[C@H]3C(=O)NC3CCC3)n(-c3ccccc3)n2)[C@@H](C)C1 [Example 153, (S)-4-[(S)-4-Carboxy-2-({5-[2-((S)-2-cyclobutylcarbamoyl-pyrrolidin-1-yl)-2-oxo-ethoxy]-1-phenyl-1H-pyrazole-3-carbonyl}-amino)-butyryl]-3-methyl-piperazine-1-carboxylic acid ethyl ester]
1080 nM | O=C(O)CC[C@H](NC(=O)c1cc(OCC(=O)N2CCC[C@H]2C(=O)NC2CCC2)n(-c2ccccc2)n1)C(=O)N1CCN(C(=O)Oc2ccccc2)CC1 [Example 156, 4-[(S)-4-Carboxy-2-({5-[2-((S)-2-cyclobutylcarbamoyl-pyrrolidin-1-yl)-2-oxo-ethoxy]-1-phenyl-1H-pyrazole-3-carbonyl}-amino)-butyryl]-piperazine-1-carboxylic acid phenyl ester]
450 nM | CCOC(=O)N1CCN(C(=O)[C@H](CCC(=O)O)NC(=O)c2cc(OCC(=O)N3CCC[C@H]3c3nc(C4CC4)no3)n(-c3ccccc3)n2)CC1 [Example 180, 4-{(S)-4-Carboxy-2-[(5-{2-[(S)-2-(3-cyclopropyl-[1,2,4]oxadiazol-5-yl)-pyrrolidin-1-yl]-2-oxo-ethoxy}-1-phenyl-1H-pyrazole-3-carbonyl)-amino]-butyryl}-piperazine-1-carboxylic acid ethyl ester]
180 nM | CCCOC(=O)N1CCN(C(=O)[C@H](CCC(=O)OC)NC(=O)c2cc(OCC(=O)N3CCC[C@H]3C(=O)NC3CCC3)n(-c3ccccc3)n2)CC1 [Example 190, 4-[(S)-2-({5-[2-((S)-2-Cyclobutylcarbamoyl-pyrrolidin-1-yl)-2-oxo-ethoxy]-1-phenyl-1H-pyrazole-3-carbonyl}-amino)-4-methoxycarbonyl-butyryl]-piperazine-1-carboxylic acid propyl ester]
460 nM | C[C@H](NC(=O)c1cc(OCC(=O)N2CCC[C@H]2C(=O)NC2CCC2)n(-c2ccccc2)n1)C(=O)N1CCN(C(=O)OC2CCC2)CC1 [Example 193, 4-[(S)-2-({5-[2-((S)-2-Cyclobutylcarbamoyl-pyrrolidin-1-yl)-2-oxo-ethoxy]-1-phenyl-1H-pyrazole-3-carbonyl}-amino)-propionyl]-piperazine-1-carboxylic acid cyclobutyl ester]
420 nM | CCOC(=O)N1CCN(C(=O)[C@H](CCC(=O)OCCCOC)NC(=O)c2cc(OCC(=O)N3CCC[C@H]3C(=O)NC3CCC3)n(-c3ccccc3)n2)CC1 [Example 200, 4-[(S)-2-({5-[2-((S)-2-Cyclobutylcarbamoyl-pyrrolidin-1-yl)-2-oxo-ethoxy]-1-phenyl-1H-pyrazole-3-carbonyl}-amino)-4-(3-methoxy-propoxycarbonyl)-butyryl]-piperazine-1-carboxylic acid ethyl ester]
570 nM | CCOC(=O)N1CCN(C(=O)[C@H](CCC(=O)OCCN2CCOCC2)NC(=O)c2cc(OCC(=O)N3CCC[C@H]3C(=O)NC3CCC3)n(-c3ccccc3)n2)CC1 [Example 201, 4-[(S)-2-({5-[2-((S)-2-Cyclobutylcarbamoyl-pyrrolidin-1-yl)-2-oxo-ethoxy]-1-phenyl-1H-pyrazole-3-carbonyl}-amino)-4-(2-morpholin-4-yl-ethoxycarbonyl)-butyryl]-piperazine-1-carboxylic acid ethyl ester]
840 nM | CCOC(=O)N1CCN(C(=O)[C@H](CCC(=O)OCC2CCOC2)NC(=O)c2cc(OCC(=O)N3CCC[C@H]3C(=O)NC3CCC3)n(-c3ccccc3)n2)CC1 (stereo partly drawn) [Example 202, 4-[(S)-2-({5-[2-((S)-2-Cyclobutylcarbamoyl-pyrrolidin-1-yl)-2-oxo-ethoxy]-1-phenyl-1H-pyrazole-3-carbonyl}-amino)-4-(tetrahydro-furan-3-ylmethoxycarbonyl)-butyryl]piperazine-1-carboxylic acid ethyl ester]

SMILES | IC50
CCCCOC(=O)NC1CCN(C(=O)[C@H](CCC(=O)O)NC(=O)c2cc(OCC(=O)N3CCC[C@H]3C(=O)NC3CCC3)n(-c3ccccc3)n2)C1 (stereo partly drawn) [Example 108, (S)-5-(3-Butoxycarbonylamino-pyrrolidin-1-yl)-4-({5-[2-((S)-2-cyclobutylcarbamoyl-pyrrolidin-1-yl)-2-oxo-ethoxy]-1-phenyl-1H-pyrazole-3-carbonyl}-amino)-5-oxo-pentanoic acid] | 1880 nM
